# Tests used:
# [1] = system: GPI-PLC, intact rat adipocytes; assay: GPI-PLC activity in intact rat adipocytes (amphiphilic-to-hydrophilic conversion of endogenous 5'-Nuc, Gce1, aP); type: cell-based
# Experimental: Adipocytes isolated by digestion from epididymal fat pads of male rats (120-140 g, fed ad libitum, see Ref. 53 [Muller et al.; Mol. Cell. Biol. 21:[…] (2001)]) were washed twice in KRH (20 mM Hepes/KOH, pH 7.4, 1.2 mM KH2PO4, 140 mM NaCl, 4.7 mM KCl, 2.5 mM CaCl2, 1.2 mM MgSO4) containing 1% (w/v) BSA and then incubated in the same medium supplemented with 100 μg/ml gentamycin, 100 nM 1-methyl-2-phenylethyladenosine, 0.5 U/ml adenosine deaminase, 1 mM sodium pyruvate and 5 mM D-glucose in the absence or presence of GPI-2350 (prepared as 10 mM stock solution in DMSO, the final DMSO concentration in the in vitro and adipocyte incubations was kept constant at 0.5% at any inhibitor concentration), insulin or glimepiride (prepared as described in “Müller et al. (1994) J. Cell. Biol. 126:1267-1276”) at 37° C. in a shaking water bath at constant bubbling with 5% CO2/95% O2 at a final titer of 100 μl of packed cell volume per ml incubation volume (determined by aspiration of small aliquots into capillary hematocrit tubes and centrifugation for 60 s [seconds] in a microhematocrit centrifuge in order to determine the fractional occupation of the suspension by the adipocytes; 10% cytocrit corresponds to about 1.5×10^6 cells/ml) for the periods indicated. […]
# [2] = system: pp59Lyn and IRS-1 in isolated rat adipocytes; assay: tyrosine phosphorylation of pp59Lyn and IRS-1; type: cell-based
# Experimental: Polypeptides separated by SDS-PAGE were transferred to polyvinylidene difluoride membranes using the semidry procedure as described in “Müller, G. et al., (2001) Mol. Cell. Biol. 21: 4553-4567”. Washed membranes were incubated with anti-caveolin-1 (1:2000), anti-pp59^Lyn (1:1250), anti-aP (1:500), anti-5′-Nuc (1:750) and anti-IRS-1 (1:2000) antibodies for 4 h at 15° C. Washed membranes were incubated with horseradish peroxidase-coupled secondary goat anti-mouse (1:2000) or goat anti-rabbit IgG (1:4000) antibodies. Labeled proteins were visualized by enhanced chemiluminescence.
# FIG. 7: Effect of GPI-2350 on the glimepiride/insulin-induced activation of signaling proteins. Isolated rat adipocytes were treated (5 min, 37° C.) without or with GPI-2350 (Panels A, 50 μM; Panels B, increasing conc.) and then incubated (120 min, 37° C.) in the absence or presence of insulin (10 nM) or glimepiride (20 μM). IRS-1 and pp59^Lyn were immunoprecipitated from the defatted postnuclear infranatant (see Materials and Methods) and solubilized combined hc/lcDIGs, respectively, and then immunoblotted for phosphotyrosine. […]
smiles,measurement,setting,value
"CCCCCCCCCCCCP1(=O)O[C@@H]2[C@H](O)[C@@H](O)[C@H](O)[C@@H](O)[C@@H]2O1 (stereo partly shown) [GPI-2350, myo-inositol-1,2-cyclo-dodecylphosphonic acid]",IC50,"[1]; FIG. 8, read-out: concentration of half-maximal inhibition of the GPI-PLC",5 µM
same,reduction of basal and glimepiride-/insulin-stimulated GPI-PLC activity,"[1]; intact adipocytes, concentration-dependent",to lower than basal and similar levels
same,effect on insulin-induced tyrosine phosphorylation of IRS-1,[2],only marginally reduced
same,effect on tyrosine phosphorylation of pp59Lyn and IRS-1 in response to glimepiride,[2]; 50 μM,almost complete blockade

# Reference: patent publication US8017350B2, “Glimepiride- and insulin-induced glycosylphosphatidylinositol-specific phospholipase C regulation” (Sanofi-Aventis Deutschland GmbH, priority 2004, dated 2011)
